For experiment [1], the target named is Lysosomal alpha-glucosidase (Rattus norvegicus) (UniProt Q6P7A9). Briefly: Inhibition of rat intestinal alpha-glucosidase using p-nitrophenyl- alpha-D-glucopyranoside as substrate at 200 uM preincubated for 5 min before addition of substrate measured after 10 min.
Experiment [2] relates to Radical scavenging activity. Briefly: Antioxidant activity assessed as DPPH free radical scavenging activity by measuring 50% radical scavenging concentration after 20 min. The experiment is classed as functional. A general note: Loss of DPPH colour is used to gauge radical scavenging.
In experiment [3] the test system is Radical scavenging activity. Briefly: Antioxidant activity assessed as DPPH free radical scavenging activity at 250 uM after 20 min. Type of experiment: functional.
In experiment [4] the test system is Rattus norvegicus. Briefly: Antihyperglycemic activity in starch fed Rattus norvegicus Wistar (rat) assessed as reduction of AUC of plasma glucose level at 50 mg/kg administered 15 min before starch feeding. Type of experiment: functional, organism-based. The arrangement: dose 50 mg/kg.
Experiment [5] deals with Rattus norvegicus. Briefly: Antihyperglycemic activity in starch fed Rattus norvegicus Wistar (rat) assessed as reduction of plasma glucose level at 50 mg/kg administered 15 min before starch feeding measured up to 60 min. The experiment is classed as functional, organism-based. The arrangement: dose 50 mg/kg.
The target in experiment [6] is Lysosomal alpha-glucosidase (Rattus norvegicus) (UniProt Q6P7A9). Briefly: Inhibition of rat intestinal alpha-glucosidase using p-nitrophenyl- alpha-D-glucopyranoside as substrate at 300 uM preincubated for 5 min before addition of substrate measured after 10 min.

Activity calls are given as the source filed them. No cut-off for these calls is given here.

Lysosomal alpha-glucosidase (Rattus norvegicus), sequence (Q6P7A9 whole entry): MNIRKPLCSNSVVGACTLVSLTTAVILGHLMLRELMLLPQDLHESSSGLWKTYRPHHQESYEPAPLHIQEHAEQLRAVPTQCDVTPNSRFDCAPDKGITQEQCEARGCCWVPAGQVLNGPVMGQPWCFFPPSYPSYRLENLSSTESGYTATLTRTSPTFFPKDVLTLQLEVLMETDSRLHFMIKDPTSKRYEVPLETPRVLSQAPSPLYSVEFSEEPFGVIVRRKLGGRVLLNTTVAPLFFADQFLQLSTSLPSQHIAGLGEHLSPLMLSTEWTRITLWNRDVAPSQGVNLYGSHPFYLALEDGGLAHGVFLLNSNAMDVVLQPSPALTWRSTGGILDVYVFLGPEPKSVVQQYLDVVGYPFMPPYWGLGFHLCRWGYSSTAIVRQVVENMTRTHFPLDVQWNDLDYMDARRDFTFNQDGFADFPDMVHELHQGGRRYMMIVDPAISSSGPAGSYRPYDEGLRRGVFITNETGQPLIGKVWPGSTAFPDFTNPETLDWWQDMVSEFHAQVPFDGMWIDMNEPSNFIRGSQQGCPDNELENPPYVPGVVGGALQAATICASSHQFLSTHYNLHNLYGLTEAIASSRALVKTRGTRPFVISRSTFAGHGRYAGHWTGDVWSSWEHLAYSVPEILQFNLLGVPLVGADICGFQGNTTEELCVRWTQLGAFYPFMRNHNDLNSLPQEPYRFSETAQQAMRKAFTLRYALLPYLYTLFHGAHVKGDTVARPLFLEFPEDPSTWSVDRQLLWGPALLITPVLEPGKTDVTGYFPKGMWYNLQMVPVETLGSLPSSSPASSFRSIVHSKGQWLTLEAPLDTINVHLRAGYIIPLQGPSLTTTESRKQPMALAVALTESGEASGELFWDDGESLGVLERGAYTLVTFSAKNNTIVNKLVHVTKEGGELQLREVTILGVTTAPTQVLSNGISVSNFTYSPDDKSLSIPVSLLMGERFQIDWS

In general, inhibition refers to the drop in the measured response relative to a control, in per cent. Turning to `C/C(=N\NC(=O)c1ccccc1)c1ccc(C)cc1`, the inhibition in experiment [1] came out at 31.6%.

Consider `Oc1ccccc1/C=N\c1ccccc1/N=C/c1ccccc1O`, for which the Activity in experiment [2] is 115 µM; in experiment [3], 75.3%. Further, the inhibition in experiment [1] was 57.9%.

On to `Oc1ccc(Br)cc1/C=N/CC/N=C/c1cc(Br)ccc1O`, for which the result in experiment [3] was inactive. The molecule also displayed an inhibition in experiment [1] of 14.4%.

As for `Oc1ccccc1/C=N/c1ccccc1`, the Activity in experiment [3] amounted to 9.29%. Further, in experiment [1], the inhibition result was “Active”.

For `O=Cc1cc(Br)ccc1O`, the result with Rattus norvegicus [4] and in the experiment with Rattus norvegicus [5] was Active. Besides, the inhibition in experiment [6] and in experiment [1] was 85.8% in each case.

Turning to `O=[N+]([O-])c1ccc(/N=C/c2ccccc2O)cc1`, the outcome in experiment [3] was inactive. In experiment [1], this molecule gave an inhibition of 95.6%.

Consider `O=[N+]([O-])c1ccc(/N=C/c2cc(Br)ccc2O)cc1`, for which the result in experiment [3] was inactive. Moreover, the inhibition result in experiment [1] was “Active”.

Turning to `Oc1ccc(Br)cc1/C=N/c1ccccc1`, the Activity in experiment [3] came out at 9.27%. The inhibition entry in experiment [1] was “Active”.

Take `Oc1ccccc1/C=N/CC/N=C/c1ccccc1O`: the result in experiment [3] was inactive. Moreover, the inhibition in experiment [1] turned out to be 29.1%.

Turning to `COc1ccc(/N=C/c2ccccc2O)cc1`, the inhibition in experiment [1] was 11.4%.

On to `C/C(=N\CC/N=C(\C)c1ccccc1)c1ccccc1`, for which the inhibition result in experiment [1] is “Active”.

`Oc1ccccc1/C=N/c1ccc(Cl)cc1`: in experiment [3], the outcome was inactive. In experiment [1], this molecule yielded an inhibition of 6.63%.

For `COc1ccc(/N=C/c2cc(Br)ccc2O)cc1`, the Activity in experiment [3] was 48.7%. The inhibition entry in experiment [1] was “Active”.

`Oc1ccc(Br)cc1/C=N/c1ccc(Cl)cc1`: the Activity in experiment [3] was found to be 13.5%. Besides, the inhibition entry in experiment [1] was “inactive”.

These data come from ChEMBL document CHEMBL3045597, “Antihyperglycemic, -glucosidase inhibitory and DPPH free radical scavenging activity of 5-bromosalicylaldehyde and schiff bases” (Med Chem Res, 2011).
